US20260062422A1 (Halda Therapeutics OpCo, Inc., priority 2022, published 2026)

Columns and labels:
[1] = molecular target: T1, BRD4-BD1 (Homo sapiens, UniProt O60885); experiment: bromoKdELECT assay for binding affinity to BRD4-BD1; details: Table 6
T1 construct: made in house; host or cells: T7 phage grown in an E. coli host derived from BL21

[2] = Cellular growth inhibition, T-Rex 293 SC cells with doxycycline (progesterone receptor isoform B induced), Example 45; format: cell-based; details: progesterone receptor isoform B induced with 10 ng/mL doxycycline, 72 hours, CellTiter-Glo 2.0, Table 11
[3] = test system: T-Rex 293 cell line SC cells lacking increased expression of progesterone receptor isoform B protein; experiment: Cellular growth inhibition, T-Rex 293 SC cells without doxycycline, Example 45; format: cell-based; details: T-Rex 293 SC cells not exposed to doxycycline, 72 hours treatment, CellTiter-Glo 2.0

Kd [1] [nM] | Compound | GI50 [2] [nM] | GI50 [3] [nM]
> 2500 | Cc1sc2c(c1C)C(c1ccc(OCCOC3CCN(c4ncc(C(=O)N[C@H]5C(C)(C)[C@H](Oc6ccc(C#N)c(Cl)c6)C5(C)C)cn4)CC3)cc1)=N[C@@H](CC(=O)OC(C)(C)C)c1nnc(C)n1-2 [Compound I-235, tert-butyl 2-((S)-4-(4-(2-((1-(5-(((1r,3r)-3-(3-chloro-4-cyanophenoxy)-2,2,4,4-tetramethylcyclobutyl)carbamoyl)pyrimidin-2-yl)piperidin-4-yl)oxy)ethoxy)phenyl)-2,3,9-trimethyl-6H-thieno[3,2-f][1,2,4]triazolo[4,3-a][1,4]diazepin-6-yl)acetate] | < 500 | < 500
> 2500 | COCC[C@@H]1N=C(c2ccc(CCCOC3CCN(c4ncc(C(=O)N[C@H]5C(C)(C)[C@H](Oc6ccc(C#N)c(Cl)c6)C5(C)C)cn4)CC3)cc2)c2c(sc(C)c2C)-n2c(C)nnc21 [Compound I-227, N-[3-(3-chloro-4-cyano-phenoxy)-2,2,4,4-tetramethyl-cyclobutyl]-2-[4-[3-[4-[(9S)-9-(2-methoxyethyl)-4,5,13-trimethyl-3-thia-1,8,11,12-tetrazatricyclo[8.3.0.02,6]trideca-2(6),4,7,10,12-pentaen-7-yl]phenyl]propoxy]-1-piperidyl]pyrimidine-5-carboxamide] | < 500 | 500 to 1500
